Results published in patent publication US20250162994A1, “DUAL LSD1/HDAC INHIBITORS” (JUBILANT EPICORE LLC, priority 2022, published 2025).
pIC50: −log10 of the molar value. Structures can show the parent of a compound that is named as a salt.

Key:
Type in all cases: biochemical
[1] = biological target: HDAC1 (Homo sapiens (Human), UniProt Q13547); assay: Histone deacetylase assay (BPS Biosciences), HDAC1; details: human recombinant enzyme
Description: Histone deacetylase assay was done as per manufacturer's instructions. Briefly, assay buffer, 200 uM HDAC substrate (fluorogenic HDAC acetylated peptide substrate for class I HDACs (HDACs 1, 2 and 3) and class 2b HDACs (HDACs 6 and 10) and 1% BSA are taken as a master mixture and aliquoted as 40 uL per well. Compounds (10×) were diluted in assay buffer and were added to respective wells of a black 96 well plate. For HDAC1 (1.4 ng/μL) and for HDAC6 (7 ng/μL) human recombinant enzyme was thawed on ice and 5 μL of respective enzyme was added per well. The plate was incubated at 37° C. for 1 hour. Developer solution was then added (50 μL per well) and incubated at room temperature for 10 minutes. Fluorescence was measured at an excitation wavelength of 350-380 nm and emission wavelength of 440-480 nm.

[2] = biological target: LSD1 (Homo sapiens (Human), UniProt O60341); assay: TR-FRET assay for LSD1 (Perkin Elmer)
Description: LSD1 enzyme was produced in house. Tranylcypromine (TCP), LSD1 inhibitor was procured from Selleckchem. LSD1 enzyme, TCP and Biotinylated peptide substrate were diluted in assay buffer just before use. 2× inhibitor (10 μL, diluted in assay buffer) or Assay Buffer, and 5 nM enzyme were added to a 96 well plate and incubated at room temperature for 30 min. […] Stop Solution containing 300 μM tranylcypromine in 1×LANCE Detection Buffer was added to the wells and incubated for 5 min at RT. Then, Detection mixture containing 2 nM Eu-Ab and 50 nM ULight-Streptavidin in 1×LANCE Detection Buffer was prepared and added to the reaction mixture. This mixture was incubated for 1 hour at room temperature.

[3] = biological target: HDAC6 (Homo sapiens (Human), UniProt Q9UBN7); assay: Histone deacetylase assay (BPS Biosciences), HDAC6; details: human recombinant enzyme
Description: Histone deacetylase assay was done as per manufacturer's instructions. […] Fluorescence was measured at an excitation wavelength of 350-380 nm and emission wavelength of 440-480 nm.

HDAC1, sequence (Q13547 whole entry): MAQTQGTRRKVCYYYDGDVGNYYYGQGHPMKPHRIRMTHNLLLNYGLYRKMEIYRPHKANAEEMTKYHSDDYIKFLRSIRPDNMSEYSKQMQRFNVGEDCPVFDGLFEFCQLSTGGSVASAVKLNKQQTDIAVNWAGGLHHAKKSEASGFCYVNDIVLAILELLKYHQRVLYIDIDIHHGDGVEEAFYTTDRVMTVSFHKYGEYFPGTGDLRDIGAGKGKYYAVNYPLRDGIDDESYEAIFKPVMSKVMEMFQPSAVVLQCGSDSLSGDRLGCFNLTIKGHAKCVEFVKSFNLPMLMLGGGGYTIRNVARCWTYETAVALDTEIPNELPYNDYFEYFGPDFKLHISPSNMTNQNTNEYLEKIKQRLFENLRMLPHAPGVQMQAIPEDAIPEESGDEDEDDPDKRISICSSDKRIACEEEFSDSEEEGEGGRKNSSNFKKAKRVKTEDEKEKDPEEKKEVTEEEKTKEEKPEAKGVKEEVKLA
HDAC6, sequence (Q9UBN7 whole entry): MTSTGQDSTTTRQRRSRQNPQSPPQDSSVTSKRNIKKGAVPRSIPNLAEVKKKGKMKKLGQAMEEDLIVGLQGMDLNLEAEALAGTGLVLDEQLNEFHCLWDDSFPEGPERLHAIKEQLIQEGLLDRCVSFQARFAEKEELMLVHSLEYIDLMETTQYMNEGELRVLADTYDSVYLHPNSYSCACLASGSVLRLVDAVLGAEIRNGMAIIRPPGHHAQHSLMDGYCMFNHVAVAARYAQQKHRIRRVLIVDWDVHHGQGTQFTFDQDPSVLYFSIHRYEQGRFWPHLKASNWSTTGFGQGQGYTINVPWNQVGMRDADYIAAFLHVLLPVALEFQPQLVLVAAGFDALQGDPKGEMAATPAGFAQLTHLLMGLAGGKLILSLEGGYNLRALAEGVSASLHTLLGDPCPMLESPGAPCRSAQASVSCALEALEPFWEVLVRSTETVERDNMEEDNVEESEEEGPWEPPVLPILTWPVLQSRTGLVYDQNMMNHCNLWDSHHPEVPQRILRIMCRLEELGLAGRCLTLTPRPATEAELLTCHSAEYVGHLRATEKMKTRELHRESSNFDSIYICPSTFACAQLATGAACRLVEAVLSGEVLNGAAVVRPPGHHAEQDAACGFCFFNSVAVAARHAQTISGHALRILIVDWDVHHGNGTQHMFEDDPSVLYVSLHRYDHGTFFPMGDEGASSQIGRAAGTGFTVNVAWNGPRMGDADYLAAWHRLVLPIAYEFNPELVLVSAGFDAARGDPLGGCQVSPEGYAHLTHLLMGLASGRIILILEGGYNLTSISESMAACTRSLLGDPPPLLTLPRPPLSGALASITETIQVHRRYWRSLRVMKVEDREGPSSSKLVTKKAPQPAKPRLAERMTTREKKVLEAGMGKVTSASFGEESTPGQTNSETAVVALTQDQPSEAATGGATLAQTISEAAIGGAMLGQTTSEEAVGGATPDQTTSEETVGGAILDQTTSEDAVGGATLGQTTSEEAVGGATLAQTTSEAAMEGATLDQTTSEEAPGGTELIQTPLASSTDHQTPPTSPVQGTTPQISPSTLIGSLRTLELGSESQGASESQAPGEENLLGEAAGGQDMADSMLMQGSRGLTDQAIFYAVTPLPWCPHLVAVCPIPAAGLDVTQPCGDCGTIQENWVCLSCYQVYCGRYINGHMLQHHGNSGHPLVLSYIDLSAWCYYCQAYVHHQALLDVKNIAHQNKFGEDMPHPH

pIC50 [1] | pIC50 [2] | pIC50 [3] | Compound
6.03 | – | – | O=C(NO)c1ccc(Cn2cc(CN[C@@H]3C[C@H]3c3ccccc3)cn2)cc1 [Compound 1, N-hydroxy-4-((4-((((1R,2S)-2-phenylcyclopropyl)amino)methyl)-1H-pyrazol-1-yl)methyl)benzamide hydrobromide]
5.81 | – | – | O=C(NO)c1ccc(Cn2cc(CN[C@H]3C[C@@H]3c3ccccc3)cn2)cc1 [Compound 2, N-hydroxy-4-((4-((((1S,2R)-2-phenylcyclopropyl)amino)methyl)-1H-pyrazol-1-yl)methyl)benzamide]
– | 8.05 | 7.06 | O=C(NO)c1ccc(CCCN2CCC(CN[C@@H]3C[C@H]3c3cnn(-c4ccccc4)c3)CC2)cc1 [Compound 3, N-hydroxy-4-(3-(4-((((1R,2S)-2-(1-phenyl-1H-pyrazol-4-yl)cyclopropyl)amino)methyl)piperidin-1-yl)propyl)benzamide]
– | 8.30 | 7.14 | O=C(NO)c1ccc(CCCN2CCC(CN[C@H]3C[C@@H]3c3cnn(-c4ccccc4)c3)CC2)cc1 [Compound 4, N-hydroxy-4-(3-(4-((((1S,2R)-2-(1-phenyl-1H-pyrazol-4-yl)cyclopropyl)amino)methyl)piperidin-1-yl)propyl)benzamide]
– | 7.51 | 7.08 | O=C(NO)c1ccc(/C=C/C(=O)N2CC(CN[C@@H]3C[C@H]3c3ccc(F)cc3)C2)cc1 [Compound 5, 4-((E)-3-(3-((((1R,2S)-2-(4-fluorophenyl)cyclopropyl)amino)methyl)azetidin-1-yl)-3-oxoprop-1-en-1-yl)-N-hydroxybenzamide]
– | 6.83 | 6.84 | O=C(NO)c1ccc(/C=C/C(=O)N2CC(CN[C@H]3C[C@@H]3c3ccc(F)cc3)C2)cc1 [Compound 6, 4-((E)-3-(3-((((1S,2R)-2-(4-fluorophenyl)cyclopropyl)amino)methyl)azetidin-1-yl)-3-oxoprop-1-en-1-yl)-N-hydroxybenzamide]
5.34 | 8.22 | 6.82 | O=C(NO)c1ccc(CCCN2CCC(CN[C@@H]3C[C@H]3c3ccc(-c4cncnc4)cc3)CC2)cc1 [Compound 7, N-hydroxy-4-(3-(4-((((1R,2S)-2-(4-(pyrimidin-5-yl)phenyl)cyclopropyl)amino)methyl)piperidin-1-yl)propyl)benzamide]
5.61 | 8.10 | 6.80 | O=C(NO)c1ccc(CCCN2CCC(CN[C@H]3C[C@@H]3c3ccc(-c4cncnc4)cc3)CC2)cc1 [Compound 8, N-hydroxy-4-(3-(4-((((1S,2R)-2-(4-(pyrimidin-5-yl)phenyl)cyclopropyl)amino)methyl)piperidin-1-yl)propyl)benzamide]
– | 6.39 | 6.72 | CN1C(=O)C(C)(C)c2cc([C@@H]3C[C@H]3NCC3CCN(CCCc4ccc(C(=O)NO)cc4)CC3)ccc21 [Compound 9, N-hydroxy-4-(3-(4-((((1R,2S)-2-(1,3,3-trimethyl-2-oxoindolin-5-yl)cyclopropyl)amino)methyl)piperidin-1-yl)propyl)benzamide]
– | 5.92 | 6.87 | CN1C(=O)C(C)(C)c2cc([C@H]3C[C@@H]3NCC3CCN(CCCc4ccc(C(=O)NO)cc4)CC3)ccc21 [Compound 10, N-hydroxy-4-(3-(4-((((1S,2R)-2-(1,3,3-trimethyl-2-oxoindolin-5-yl)cyclopropyl)amino)methyl)piperidin-1-yl)propyl)benzamide]
5.11 | – | – | Nc1ccccc1NC(=O)c1ccc(CCCN2CCC(CN[C@@H]3C[C@H]3c3ccc(F)cc3)CC2)cc1 [Compound 15, N-(2-aminophenyl)-4-(3-(4-((((1R,2S)-2-(4-fluorophenyl)cyclopropyl)amino)methyl)piperidin-1-yl)propyl)benzamide]
6.53 | – | – | Nc1ccccc1NC(=O)c1ccc(CCCN2CCC(CN[C@H]3C[C@@H]3c3ccc(F)cc3)CC2)cc1 [Compound 16, N-(2-aminophenyl)-4-(3-(4-((((1S,2R)-2-(4-fluorophenyl)cyclopropyl)amino)methyl)piperidin-1-yl)propyl)benzamide]
5.98 | 7.00 | – | CC(C)n1cc([C@@H]2C[C@H]2NCC2CCN(CCCc3ccc(C(=O)Nc4ccccc4N)cc3)CC2)cn1 [Compound 17, N-(2-aminophenyl)-4-(3-(4-((((1R,2S)-2-(1-isopropyl-1H-pyrazol-4-yl)cyclopropyl)amino)methyl)piperidin-1-yl)propyl)benzamide]
5.54 | 6.86 | – | CC(C)n1cc([C@H]2C[C@@H]2NCC2CCN(CCCc3ccc(C(=O)Nc4ccccc4N)cc3)CC2)cn1 [Compound 18, N-(2-aminophenyl)-4-(3-(4-((((1S,2R)-2-(1-isopropyl-1H-pyrazol-4-yl)cyclopropyl)amino)methyl)piperidin-1-yl)propyl)benzamide]
– | 8.22 | – | Cn1cc(-c2ccc([C@@H]3C[C@H]3NCC3CCN(Cc4ccc(C(=O)Nc5ccccc5N)cc4)CC3)cc2)ccc1=O [Compound 19, N-(2-aminophenyl)-4-((4-((((1R,2S)-2-(4-(1-methyl-6-oxo-1,6-dihydropyridin-3-yl)phenyl)cyclopropyl)amino)methyl)piperidin-1-yl)methyl)benzamide]
– | 7.70 | – | Cn1cc(-c2ccc([C@H]3C[C@@H]3NCC3CCN(Cc4ccc(C(=O)Nc5ccccc5N)cc4)CC3)cc2)ccc1=O [Compound 20, N-(2-aminophenyl)-4-((4-((((1S,2R)-2-(4-(1-methyl-6-oxo-1,6-dihydropvridin-3-yl)phenyl)cyclopropyl)amino)methyl)piperidin-1-yl)methyl)benzamide]
– | 7.16 | – | Nc1ccccc1NC(=O)c1ccc(Cn2cc(CN[C@@H]3C[C@H]3c3ccc(F)cc3)nn2)cc1 [Compound 21, N-(2-aminophenyl)-4-((4-((((1R,2S)-2-(4-fluorophenyl)cyclopropyl)amino)methyl)-1H-1,2,3-triazol-1-yl)methyl)benzamide]
– | 6.07 | – | Nc1ccccc1NC(=O)c1ccc(Cn2cc(CN[C@H]3C[C@@H]3c3ccc(F)cc3)nn2)cc1 [Compound 22, N-(2-aminophenyl)-4-((4-((((1S,2R)-2-(4-fluorophenyl)cyclopropyl)amino)methyl)-1H-1,2,3-triazol-1-yl)methyl)benzamide]
6.58 | 8.00 | – | Nc1ccccc1NC(=O)c1ccc(CCCN2CCC(CN[C@@H]3C[C@H]3c3cnn(-c4ccccc4)c3)CC2)cc1 [Compound 23, N-(2-aminophenyl)-4-(3-(4-((((1R,2S)-2-(1-phenyl-1H-pyrazol-4-yl)cyclopropyl)amino)methyl)piperidin-1-yl)propyl)benzamide]
5.07 | 8.22 | – | Nc1ccccc1NC(=O)c1ccc(CCCN2CCC(CN[C@H]3C[C@@H]3c3cnn(-c4ccccc4)c3)CC2)cc1 [Compound 24, N-(2-aminophenyl)-4-(3-(4-((((1S,2R)-2-(1-phenyl-1H-pyrazol-4-yl)cyclopropyl)amino)methyl)piperidin-1-yl)propyl)benzamide]
– | – | < 5.00 | Nc1ccccc1NC(=O)c1ccc(CCCN2CCC(CN[C@H]3C[C@@H]3c3ccc(F)c(F)c3)CC2)cc1 [Compound 26, N-(2-aminophenyl)-4-(3-(4-((((1S,2R)-2-(3,4-difluorophenyl)cyclopropyl)amino)methyl)piperidin-1-yl)propyl)benzamide]
– | 8.22 | – | Cc1noc(C)c1-c1ccc([C@@H]2C[C@H]2NCC2CCN(Cc3ccc(C(=O)Nc4ccccc4N)cc3)CC2)cc1 [Compound 27, N-(2-aminophenyl)-4-((4-((((1R,2S)-2-(4-(3,5-dimethylisoxazol-4-yl)phenyl)cyclopropyl)amino)methyl)piperidin-1-yl)methyl)benzamide]
– | 7.54 | – | Cc1noc(C)c1-c1ccc([C@H]2C[C@@H]2NCC2CCN(Cc3ccc(C(=O)Nc4ccccc4N)cc3)CC2)cc1 [Compound 28, N-(2-aminophenyl)-4-((4-((((1S,2R)-2-(4-(3,5-dimethylisoxazol-4-yl)phenyl)cyclopropyl)amino)methyl)piperidin-1-yl)methyl)benzamide]
– | 6.17 | – | Nc1ccccc1NC(=O)c1ccc(Cn2cc(CN[C@@H]3C[C@H]3c3ccccc3)nn2)cc1 [Compound 29, N-(2-aminophenyl)-4-((4-((((1R,2S)-2-phenylcyclopropyl)amino)methyl)-1H-1,2,3-triazol-1-yl)methyl)benzamide]
6.74 | 7.57 | < 5.00 | Nc1ccccc1NC(=O)c1ccc(Cn2cc(CN[C@@H]3C[C@H]3c3ccccc3)cn2)cc1 [Compound 30, N-(2-aminophenyl)-4-((4-((((1R,2S)-2-phenylcyclopropyl)amino)methyl)-1H-pyrazol-1-yl)methyl)benzamide]
